A word on the IC50: it is the concentration needed to halve the response being measured. Broadly, the CC50 is the concentration that lowers cell viability or growth by half.

Molecules are shown by their SMILES. Values joined by “and” are separate entries in the source; they are usually repeats but may differ in a detail not shown here. Equal entries are not always repeated. Where two headings read alike, the source gives them in different places.

For series [1], the system named is SARS-CoV-2 B.1.1.7 variant. Nature of the series: microbe, parasite or virus in culture. The series is classed as cell-based. As to conditions: for IC50: read-out: Vero-E6 (B.1.1.7) IC50.
Another series relates to SARS-CoV-2 WA1 variant. Kind of series: microbe, parasite or virus in culture. The series is classed as cell-based.
Series [2] concerns SARS-CoV-2 B.1.1.7 variant. Nature of the series: microbe, parasite or virus in culture. The format is cell-based.
Series [3] has as its system SARS-CoV-2 B.1.1.7 variant. The series is classed as cell-based.
A short description of series [4]: Cell viability in VeroE6, shortened 24 h infection assay. As to conditions: African green monkey, VeroE6 cells infected with SARS-CoV-2, CC50 in shortened assay, VeroE6, 1 h preincubation, 24 h infection, top 10 μM.
The mark [5] stands for this setting: Severe acute respiratory syndrome coronavirus 2, Vero C1008, 48 h.
The mark [6] stands for this setting: Severe acute respiratory syndrome coronavirus 2, NCI-H1437, 48 h.
[7] abbreviates: VeroE6, B.1.1.7, 156, 313, 625 nM niclosamide vs viral control.

For the compound `CC(C)(C)c1cccc(C(=O)Nc2ccc(C(=O)O)cc2Cl)c1O` [Compound 30], the IC50 in series [1] is above 20 µM. Further, the “H1437 (WA1) IC50” value in the series on SARS-CoV-2 WA1 variant is “Inverted”.

As to `CC(C)(C)c1cccc(C(=O)Nc2ccc([N+](=O)[O-])cc2Cl)c1O` [Compound 31], the half-inhibitory concentration (IC50) (in series [1]; with SARS-CoV-2 WA1 variant (read-out: H1437 (WA1) IC50)) was above 20 µM in each case.

As to `Cc1ccc(O)c(C(=O)Nc2ccc([N+](=O)[O-])cc2Cl)c1` [Compound 3], the IC50 in series [1] is 1.25 µM; in the series with SARS-CoV-2 WA1 variant (read-out: H1437 (WA1) IC50), 2.6 µM.

On to `O=C(Nc1ccc([N+](=O)[O-])cc1Cl)c1cc(Cl)ccc1O` [Niclosamide], for which the “selectivity index (CC50/IC50), VeroE6” value in series [1] was 1.86 and < 2. For the same compound, the IC50 in series [1] (setting [5]) was found to be 0.564 µM; in series [2] (Severe acute respiratory syndrome coronavirus 2, NCI-H1437), 0.261 µM; with SARS-CoV-2 WA1 variant (setting [6]) it was 16.8 µM. Moreover, the “selectivity index (CC50/IC50), H1437” value in series [2] was 1.67 and < 2. Also, the “maximum size of syncytia (max area of viral objects)” value in series [3] (setting [7]) is “decreased”. Further, the “number of individually infected cells within a well (viral objects per well)” value in series [3] (setting [7]) is listed as “reduced”. The “N protein intensity of remaining viral objects” value in series [3] (VeroE6, B.1.1.7, escalating concentrations 156, 313, 625 nM) was “increased”. This compound yielded a CC50 at 25 h in series [4] above 10 µM.

For the compound `COc1ccc(NC(=O)c2cc(Cl)ccc2O)c(Cl)c1` [Compound 10], the IC50 in series [1] was 4.25 µM. Also, in the series with SARS-CoV-2 WA1 variant, the “H1437 (WA1) IC50” value is given as “Inverted” and the “exacerbation of infection in H1437 (inverted concentration-response curves at high concentrations)” value (shortened to “exacerbation of infection in H1437”) is on record as “exacerbate infection”.

Consider `O=C(Nc1ccc([N+](=O)[O-])cc1Cl)c1cccc(Cl)c1` [Compound 9], for which the “Vero-E6 (B.1.1.7) IC50” value in series [1] is recorded as “complete loss of activity”. Also, the IC50 (in series [1] (setting [5]); in the series on SARS-CoV-2 WA1 variant (setting [6])) was above 20 µM throughout. Further, the “H1437 (WA1) IC50” value with SARS-CoV-2 WA1 variant was “complete loss of activity”.

Turning to `CC(C)(C)c1cc(C(=O)Nc2ccc(NS(C)(=O)=O)cc2Cl)c(O)c(C(C)(C)C)c1` [Compound 18], in series [1], the 50% inhibitory concentration (IC50) was above 20 µM. Also, in the series with SARS-CoV-2 WA1 variant, the “H1437 (WA1) IC50” value was “Inverted”.

In the case of `COC(=O)c1ccc(NC(=O)c2cc(C(C)(C)C)ccc2O)c(Cl)c1` [Compound 13], the IC50 (in series [1]; in the series on SARS-CoV-2 WA1 variant (read-out: H1437 (WA1) IC50)) was above 20 µM in each case.

Turning to `O=C(Nc1ccc([N+](=O)[O-])cc1Cl)c1ccccc1O` [Compound 2], the IC50 was found to be 0.296 µM in series [1] (setting [5]) and 4.92 µM in the series with SARS-CoV-2 WA1 variant (setting [6]).

With `CC(C)(C)c1cc(C(=O)Nc2ccc(C(=O)O)cc2Cl)c(O)c(C(C)(C)C)c1` [Compound 26], the IC50 (in series [1]; with SARS-CoV-2 WA1 variant (read-out: H1437 (WA1) IC50)) was above 20 µM in each case.

Take `N#Cc1ccc(NC(=O)c2cc(Cl)ccc2O)c(Cl)c1` [Compound 24]: the values for the IC50 (in series [1] (setting [5]); with SARS-CoV-2 WA1 variant (setting [6])) were 0.348 µM and 1.07 µM, respectively.

As to `COc1ccc(O)c(C(=O)Nc2ccc([N+](=O)[O-])cc2Cl)c1` [Compound 4], the IC50 in series [1] amounted to 1.77 µM; in the series with SARS-CoV-2 WA1 variant (read-out: H1437 (WA1) IC50) it was 10.9 µM.

With `O=C(O)c1ccc(NC(=O)c2cc(C3CCCCC3)ccc2O)c(Cl)c1` [Compound 22], the IC50 in series [1] stood at 4.51 µM. In addition, in the series on SARS-CoV-2 WA1 variant, the “H1437 (WA1) IC50” value is “Inverted” and the “exacerbation of infection in H1437” value is “exacerbate infection”.

Turning to `CC(C)(C)c1ccc(O)c(C(=O)Nc2ccc(C(=O)O)cc2F)c1` [Compound 15], the IC50 in series [1] is above 20 µM. For the same compound, the “H1437 (WA1) IC50” value in the series with SARS-CoV-2 WA1 variant is “Inverted”.

On to `CC(C)(C)c1ccc(O)c(C(=O)Nc2ccc([N+](=O)[O-])cc2Cl)c1` [Compound 11], for which the IC50 was found to be 0.423 µM in series [1] (setting [5]) and 3.1 µM in the series on SARS-CoV-2 WA1 variant (setting [6]).

As to `O=C(Nc1ccc(Br)cc1Cl)c1cc(Cl)ccc1O` [Compound 34], the figures for the IC50 (in series [1]; in the series on SARS-CoV-2 WA1 variant (read-out: H1437 (WA1) IC50)) were 0.76 µM and 3.49 µM, respectively.

For `COC(=O)c1ccc(NC(=O)c2cc(C(F)(F)F)ccc2O)c(C)c1` [Compound 23], the IC50 (in series [1]; in the series with SARS-CoV-2 WA1 variant (read-out: H1437 (WA1) IC50)) was above 20 µM throughout.

As to `O=C(O)c1ccc(NC(=O)c2cc(Cl)ccc2O)c(Cl)c1` [Compound 8], in series [1], the IC50 is above 20 µM. In addition, in the series with SARS-CoV-2 WA1 variant, the “H1437 (WA1) IC50” value is recorded as “Inverted” and the “exacerbation of infection in H1437” value was “exacerbate infection”.

For `Cc1cc(NC(=O)c2cc(C(C)(C)C)cc(C(C)(C)C)c2O)ccc1C(=O)O` [Compound 27], in series [1], the IC50 turned out to be 16.5 µM.

In the case of `COc1ccc(O)c(C(=O)Nc2ccc([N+](=O)[O-])cc2Cl)c1` [Compound 12], the IC50 in series [1] is 1.5 µM; in the series with SARS-CoV-2 WA1 variant (read-out: H1437 (WA1) IC50), 16.9 µM.

Regarding `COC(=O)c1ccc(NC(=O)c2cc(C3CCCCC3)ccc2O)c(Cl)c1` [Compound 21], the half-inhibitory concentration (IC50) in series [1] is 9.91 µM; in the series on SARS-CoV-2 WA1 variant (read-out: H1437 (WA1) IC50) it was above 20 µM.

On to `CC(C)(C)c1cccc(C(=O)Nc2ccc(N)cc2Cl)c1O` [Compound 32], for which the 50% inhibitory concentration (IC50) (in series [1]; with SARS-CoV-2 WA1 variant (read-out: H1437 (WA1) IC50)) was above 20 µM each time.

Regarding `Cc1cc(NC(=O)c2cc(C(C)(C)C)cc(C(C)(C)C)c2O)ccc1C(=O)O` [Compound 20], the IC50 (in series [1]; in the series with SARS-CoV-2 WA1 variant (read-out: H1437 (WA1) IC50)) was above 20 µM throughout.

For the compound `COC(=O)c1ccc(NC(=O)c2cc(Cl)ccc2O)c(Cl)c1` [Compound 7], the IC50 in series [1] (setting [5]) is 0.334 µM. For the same compound, in the series on SARS-CoV-2 WA1 variant, the “H1437 (WA1) IC50” value is “Inverted” and the “exacerbation of infection in H1437” value was “exacerbate infection”.

In the case of `COC(=O)c1ccc(NC(=O)c2cccc(C(C)(C)C)c2O)c(Cl)c1` [Compound 25], the IC50 in series [1] is above 20 µM. In the series on SARS-CoV-2 WA1 variant, the “H1437 (WA1) IC50” value was “Inverted” and the “exacerbation of infection in H1437” value is on record as “exacerbate infection”.

Regarding `COc1ccc(O)c(C(=O)Nc2ccc(C(=O)O)cc2C)c1` [Compound 28], in series [1], the concentration for half-maximal inhibition (IC50) was above 20 µM. Also, the “H1437 (WA1) IC50” value with SARS-CoV-2 WA1 variant is “Inverted”.

`Cc1cc(C(=O)O)ccc1NC(=O)c1cc(C(C)(C)C)ccc1O` [Compound 16]: the 50% inhibitory concentration (IC50) in series [1] was above 20 µM. The “H1437 (WA1) IC50” value in the series on SARS-CoV-2 WA1 variant is on record as “Inverted”.

For the compound `O=C(Nc1ccccc1Cl)c1cc(Cl)ccc1O` [Compound 5], the IC50 is 0.89 µM in series [1] and above 20 µM in the series with SARS-CoV-2 WA1 variant (read-out: H1437 (WA1) IC50).

Regarding `Cc1ccc(NC(=O)c2cc(Cl)ccc2O)c(Cl)c1` [Compound 6], the half-maximal inhibitory concentration (IC50) was 0.76 µM in series [1] and above 20 µM in the series with SARS-CoV-2 WA1 variant (read-out: H1437 (WA1) IC50).

Take `CC(C)(C)c1cc(C(=O)Nc2ccc(N)cc2Cl)c(O)c(C(C)(C)C)c1` [Compound 19]: the IC50 in series [1] was above 20 µM. In addition, the “H1437 (WA1) IC50” value with SARS-CoV-2 WA1 variant is listed as “Inverted”.

Regarding `CC(C)(C)c1ccc(O)c(C(=O)Nc2ccc(C(=O)O)cc2Cl)c1` [Compound 14], in series [1], the IC50 is above 20 µM. Moreover, the “H1437 (WA1) IC50” value in the series with SARS-CoV-2 WA1 variant was “Inverted”.

Consider `CC(C)(C)c1cccc(C(=O)Nc2ccc(NS(C)(=O)=O)cc2Cl)c1O` [Compound 33], for which the IC50 in series [1] was 2.88 µM. In addition, in the series with SARS-CoV-2 WA1 variant, the “H1437 (WA1) IC50” value is given as “Inverted” and the “exacerbation of infection in H1437” value is “exacerbate infection”.

(Values after article PMC9412300, “In Vitro Evaluation and Mitigation of Niclosamide’s Liabilities as a COVID-19 Treatment” (Vaccines, 2022).)
